pEC50: −log10 of the molar value. Values joined by “and” are separate entries in the source; they are usually repeats but may differ in a detail not shown here. Equal values may be shown once.
What was measured:
[1] = system: luciferase; experiment: Luciferase counter assay: Kinase-Glo with 62.5 μM ATP without recombinant VCP; assay type: biochemical; conditions: for measured ATP consumed (nmol) without VCP: replicate values
Summary of the method: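 Counter-screen with no recombinant VCP: 62.5 μM ATP and rising compound concentrations in ATPase buffer (25 mM HEPES pH 7.5, 100 mM NaCl, 10 mM MgCl2, 2% DMSO), 1 h at 25°C. Remaining ATP was read as Kinase-Glo luminescence after 20 min at room temperature; n=3, linear mixed effects model.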

[2] = system: WT HeLa cells expressing TDP-4FL; experiment: Immunofluorescence of TDP-4FL inclusion morphology, WT HeLa; assay type: cell-based; conditions: MG132 17 h, then CHX with 5 μM UP109 4 h
Description: HeLa Cells were plated onto glass coverslips and transfected with TDP-4FL using Fugene HD for 24 hours. Cells were fixed with 4% paraformaldehyde (Electron Microscopy Sciences), permeabilized with 0.1% Triton-X (Thermo Fisher Scientific), and blocked with 2% FBS DPBS. Primary antibodies were diluted in 2% FBS DPBS. Cells were stained with 300 nM DAPI, and coverslips were mounted onto glass slides using ProLong Glass Antifade Mountant (Thermo Fisher Scientific). Confocal images were obtained using a Leica TCS SPE laser scanning confocal microscope.
(A) High power magnification immunofluorescence confocal images of HeLa cells expressing TDP-4FL stained for myc-TDP (green) Scale bar, 5 µm. […]
(C) Representative confocal microscopy immunofluorescence confocal images of HeLa cells […]
yellow represent cells that were categorized as anisosome morphology. Nuclei outline in white represent cells that were categorized as aggregate morphology. Cells with approximately more than 50% anisosome inclusions were categorized as anisosome morphology whereas cells with approximately more than 50% aggregate-like inclusions were categorized as aggregate morphology. Binucleate cells were excluded from the total counts. Scale bar, 10 µm.
(1 picture or pasted object on this page, not shown here)

[3] = target: T1, WT VCP + Ufd1/Nploc4 (Mus musculus, UniProt Q01853); experiment: Kinase-Glo ATPase assay, WT VCP with UFD1/NPLOC4 (UN); assay type: biochemical; conditions: for ATP consumed: WT VCP with UN
T1 construct: in the full-length recombinant VCP; His (N); made in house; host or cells: E. coli (VCP: BL21-CodonPlus (DE3)-RIL; UFD1 and NPLOC4: E. coli (DE3), purified by the MD Anderson core)
Summary of the method: (§1)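 Mouse VCP (50 nM), alone or with 50 nM UFD1/NPLOC4, was incubated 1 h at 25 °C with 62.5 μM ATP and a range of compound concentrations in HEPES pH 7.5, 100 mM NaCl, 10 mM MgCl2, 2% DMSO. Remaining ATP was read by Kinase-Glo luminescence. Dose data were fit to a 3-parameter curve; ATP-varied data were fit to Michaelis-Menten.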

[4] = target: T2, A232E VCP (Mus musculus, UniProt Q01853, A232E); experiment: MESG-PNP ATPase assay, recombinant A232E VCP; assay type: biochemical
T2 construct: in the full-length recombinant VCP; His (N); made in house; host or cells: Escherichia coli BL21-CodonPlus (DE3)-RIL
Summary of the method: (§2)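 Phosphate release (MESG-PNP, A360) from 50 nM recombinant mouse VCP mutant, with 25 μM compound versus 2% DMSO, at 1mM ATP. Read >15 min at 25°C, quantified against a phosphate standard curve; initial velocity from linear fit of the linear portion.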

[5] = target: T3, R159H VCP (Mus musculus, UniProt Q01853, R159H); experiment: MESG-PNP ATPase assay, recombinant R159H VCP; assay type: biochemical
T3 construct: in the full-length recombinant VCP; His (N); made in house; host or cells: Escherichia coli BL21-CodonPlus (DE3)-RIL
Summary of the method: as §2

[6] = target: T4, R155H VCP (Mus musculus, UniProt Q01853, R155H); experiment: MESG-PNP ATPase assay, recombinant R155H VCP; assay type: biochemical
T4 construct: in the full-length recombinant VCP; His (N); made in house; host or cells: Escherichia coli BL21-CodonPlus (DE3)-RIL
Summary of the method: as §2

[7] = target: T5, recombinant WT VCP (Mus musculus, UniProt Q01853); experiment: Kinase-Glo ATPase assay, recombinant WT VCP; assay type: biochemical; conditions: for ATP consumed: WT VCP no UN
T5 construct: in the full-length recombinant VCP; His (N); made in house; host or cells: Escherichia coli BL21-CodonPlus (DE3)-RIL
Summary of the method: as §1

[8] = target: T5, recombinant WT VCP; experiment: MESG-PNP (EnzCheck) phosphate release ATPase assay, WT VCP; assay type: biochemical; conditions: for ATPase activity v0/ET: 25 μM compound, replicate experiments
Summary of the method: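 50 nM mouse WT VCP with 25 μM compound, 2% DMSO and varied ATP at 25°C; phosphate release followed by MESG-PNP absorbance at 360 nm for over 15 min against a phosphate standard curve. Initial rates from the linear portion, fitted to a 3-parameter dose curve or to Michaelis-Menten.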

[9] = 25 μM compound, 1 mM ATP, 50 nM VCP

T2 sequence (Q01853 whole entry A232E): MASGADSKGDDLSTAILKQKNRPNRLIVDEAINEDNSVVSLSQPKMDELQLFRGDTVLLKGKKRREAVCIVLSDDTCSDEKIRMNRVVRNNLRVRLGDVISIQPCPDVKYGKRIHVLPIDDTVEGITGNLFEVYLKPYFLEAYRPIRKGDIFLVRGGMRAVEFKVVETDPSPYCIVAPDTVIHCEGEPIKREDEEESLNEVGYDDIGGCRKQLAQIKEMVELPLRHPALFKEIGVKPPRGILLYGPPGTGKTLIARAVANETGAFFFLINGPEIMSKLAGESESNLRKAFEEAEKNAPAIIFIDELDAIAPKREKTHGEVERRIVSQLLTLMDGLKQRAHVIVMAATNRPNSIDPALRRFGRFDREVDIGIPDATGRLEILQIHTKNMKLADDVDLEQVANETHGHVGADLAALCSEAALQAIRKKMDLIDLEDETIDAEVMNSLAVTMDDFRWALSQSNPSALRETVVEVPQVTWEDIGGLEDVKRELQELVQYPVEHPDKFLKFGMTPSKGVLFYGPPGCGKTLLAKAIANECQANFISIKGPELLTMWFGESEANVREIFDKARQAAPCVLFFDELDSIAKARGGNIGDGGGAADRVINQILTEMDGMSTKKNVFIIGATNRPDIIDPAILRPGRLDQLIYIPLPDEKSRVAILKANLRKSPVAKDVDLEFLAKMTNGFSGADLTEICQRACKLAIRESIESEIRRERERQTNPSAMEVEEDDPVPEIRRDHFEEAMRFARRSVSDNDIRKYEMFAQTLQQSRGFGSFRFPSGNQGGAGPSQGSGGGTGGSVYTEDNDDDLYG
T5 sequence (Q01853 whole entry): as the sequence (Q01853 whole entry A232E) above, with E232A counted along it
T1 sequence (Q01853 whole entry): as the sequence (Q01853 whole entry A232E) above, with E232A counted along it
T1 sequence (Q92890 whole entry partner): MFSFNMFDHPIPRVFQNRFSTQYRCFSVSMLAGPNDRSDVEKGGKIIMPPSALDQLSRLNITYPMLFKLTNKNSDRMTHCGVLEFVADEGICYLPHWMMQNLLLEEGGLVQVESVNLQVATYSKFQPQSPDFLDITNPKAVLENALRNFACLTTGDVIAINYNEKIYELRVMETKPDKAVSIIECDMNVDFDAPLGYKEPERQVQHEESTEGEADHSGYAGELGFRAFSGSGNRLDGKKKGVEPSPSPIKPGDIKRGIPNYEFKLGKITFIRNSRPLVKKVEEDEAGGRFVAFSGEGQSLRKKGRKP
T1 sequence (Q8TAT6 whole entry partner): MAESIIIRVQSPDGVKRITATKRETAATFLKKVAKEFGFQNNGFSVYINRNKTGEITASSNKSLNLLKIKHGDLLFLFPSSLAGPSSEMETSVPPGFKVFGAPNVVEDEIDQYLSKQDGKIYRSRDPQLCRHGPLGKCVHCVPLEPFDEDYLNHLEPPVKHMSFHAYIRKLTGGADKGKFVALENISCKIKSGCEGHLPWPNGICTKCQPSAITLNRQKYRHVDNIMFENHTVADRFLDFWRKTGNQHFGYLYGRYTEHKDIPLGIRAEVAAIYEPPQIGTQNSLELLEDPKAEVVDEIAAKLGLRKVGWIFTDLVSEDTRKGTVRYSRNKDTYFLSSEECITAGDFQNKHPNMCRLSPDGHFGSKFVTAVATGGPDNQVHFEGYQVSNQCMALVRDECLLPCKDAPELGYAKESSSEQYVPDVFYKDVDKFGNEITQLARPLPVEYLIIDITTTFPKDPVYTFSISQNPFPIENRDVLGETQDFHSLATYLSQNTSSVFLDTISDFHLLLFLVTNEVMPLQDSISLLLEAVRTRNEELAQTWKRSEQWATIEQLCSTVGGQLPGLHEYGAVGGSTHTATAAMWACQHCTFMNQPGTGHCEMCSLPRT
T3 sequence (Q01853 whole entry R159H): as the sequence (Q01853 whole entry A232E) above, with R159H, E232A counted along it
T4 sequence (Q01853 whole entry R155H): as the sequence (Q01853 whole entry A232E) above, with R155H, E232A counted along it

With `COCCNC(=O)NC(=O)COC(=O)c1cc([N+](=O)[O-])ccc1Sc1nc(C)cs1` [UP109] the “luciferase activity (measured ATP without VCP)” value ([1]; 62.5 μM ATP, increasing concentrations of compound) was “did not inhibit luciferase activity”, the “measured ATP consumed (nmol) without VCP” value ([1]; compound 6.25 μM) was 3.224 nmol and 3.481 nmol and 3.557 nmol and 3.618 nmol and 3.348 nmol and 3.306 nmol and 3.280 nmol and 3.059 nmol and 3.211 nmol and 3.590 nmol and 3.249 nmol and 3.229 nmol and the “measured ATP consumed (nmol) without VCP” value ([1]; compound 12.5 μM) was 3.275 nmol and 3.593 nmol and 3.611 nmol and 3.469 nmol and 3.221 nmol and 3.387 nmol and 3.414 nmol and 3.086 nmol and 3.141 nmol and 3.174 nmol and 3.231 nmol and 3.422 nmol. For the same compound, the “measured ATP consumed (nmol) without VCP” value ([1]; compound 25 μM) was 3.285 nmol and 3.476 nmol and 3.450 nmol and 3.355 nmol and 3.220 nmol and 3.354 nmol and 3.314 nmol and 3.030 nmol and 3.217 nmol and 3.388 nmol and 3.578 nmol and 3.396 nmol, the “measured ATP consumed (nmol) without VCP” value ([1]; compound 50 μM) was 3.335 nmol and 3.348 nmol and 3.307 nmol and 3.386 nmol and 3.228 nmol and 2.949 nmol and 3.054 nmol and 3.211 nmol and 3.367 nmol and 3.287 nmol and 3.322 nmol and the “measured ATP consumed (nmol) without VCP” value ([1]; compound 100 μM) was 3.258 nmol and 3.303 nmol and 3.325 nmol and 3.212 nmol and 3.287 nmol and 3.191 nmol and 3.396 nmol and 3.257 nmol and 3.381 nmol and 3.296 nmol. For the same compound, the “measured ATP consumed (nmol) without VCP” value ([1]; compound 200 μM) was 3.338 nmol and 3.532 nmol and 3.360 nmol and 3.185 nmol and 3.242 nmol and 2.772 nmol and 3.166 nmol and 3.261 nmol and 3.507 nmol and 3.171 nmol and 3.672 nmol, the TDP-4FL aggregate morphology [2] was “appeared to be smaller and in some cases revert to small anisosomes” and the “change in EC50 with UN compared to without UN” value [3] was “non-significant decreases”. For the same compound, the “change in maximum percent activity with UN compared to without UN” value [3] was “significantly decreased”, the pEC50 ([3]; WT VCP + Ufd1/Nploc4, 1:1 molar ratio) was 4.87 and the “ATP consumed” value ([3]; 1.56 μM compound) was 1.207 nmol and 1.374 nmol and 1.037 nmol. For the same compound, the “ATP consumed” value ([3]; 3.13 μM compound) was 1.252 nmol and 1.505 nmol and 1.198 nmol, the “ATP consumed” value ([3]; 6.25 μM compound) was 1.448 nmol and 1.727 nmol and 1.392 nmol and the “ATP consumed” value ([3]; 12.5 μM compound) was 1.655 nmol and 1.932 nmol and 1.557 nmol. For the same compound, the “ATP consumed” value ([3]; 25 μM compound) was 1.893 nmol and 2.050 nmol and 1.818 nmol, the “ATP consumed” value ([3]; 50 μM compound) was 2.078 nmol and 2.217 nmol and 1.927 nmol and the “ATP consumed” value ([3]; 100 μM compound) was 2.107 nmol and 2.355 nmol and 2.018 nmol. The “ATP consumed” value ([3]; 200 μM compound) was 1.978 nmol and 2.301 nmol and 2.081 nmol, the “ATPase activity of A232E VCP” value [4, 9] was “increases ATPase activity” and the “ATPase activity, nmol Pi / nmol VCP / s” value ([4]; VCP Mutation A232E, replicate values) was 1.176 nmol Pi / nmol VCP / s and 1.282 nmol Pi / nmol VCP / s and 1.456 nmol Pi / nmol VCP / s. The “ATPase activity of R159H VCP” value [5, 9] was “increases ATPase activity”, the “ATPase activity, nmol Pi / nmol VCP / s” value ([5]; VCP Mutation R159H, replicate values) was 1.124 nmol Pi / nmol VCP / s and 1.212 nmol Pi / nmol VCP / s and 1.056 nmol Pi / nmol VCP / s and the “ATPase activity of R155H VCP” value [6, 9] was “increases ATPase activity”. For the same compound, the “ATPase activity, nmol Pi / nmol VCP / s” value ([6]; VCP Mutation R155H, replicate values) was 1.058 nmol Pi / nmol VCP / s and 1.110 nmol Pi / nmol VCP / s and 1.179 nmol Pi / nmol VCP / s, the EC50 ([7]; EC50 (μM) (95% CI), WT VCP without UN, 50 nM VCP, 62.5 μM ATP, 2% DMSO) was 24.7 µM and the “ATP consumed” value ([7]; 1.56 μM compound) was 0.864 nmol and 1.057 nmol and 1.000 nmol. For the same compound, the “ATP consumed” value ([7]; 3.13 μM compound) was 1.129 nmol and 1.166 nmol and 1.237 nmol, the “ATP consumed” value ([7]; 6.25 μM compound) was 1.129 nmol and 1.374 nmol and 1.469 nmol and the “ATP consumed” value ([7]; 12.5 μM compound) was 1.453 nmol and 1.583 nmol and 1.518 nmol. For the same compound, the “ATP consumed” value ([7]; 25 μM compound) was 1.644 nmol and 1.860 nmol and 1.582 nmol, the “ATP consumed” value ([7]; 50 μM compound) was 1.793 nmol and 1.914 nmol and 2.036 nmol and the “ATP consumed” value ([7]; 100 μM compound) was 1.926 nmol and 2.030 nmol and 2.160 nmol. The “ATP consumed” value ([7]; 200 μM compound) was 2.051 nmol and 2.217 nmol and 2.241 nmol, the “recombinant WT VCP ATPase activity” value ([7]; in vitro validation of 106 screen hits) was “significantly increased” and the “increase of VCP activity” value ([7]; maximum, WT VCP without UN) was 97%. For the same compound, the “decrease in KM compared with DMSO” value ([8]; 25 μM activator) was “more than 2 fold”, the “kcat (nmol Pi / nmol VCP / s) (95% CI)” value ([8]; 25 μM activator) was 0.489 (0.459, 0.520) nmol Pi / nmol VCP / s and the “increase in catalytic efficiency (kcat/KM)” value ([8]; 25 μM activator, versus DMSO) was over 4 fold. The increase in kcat ([8]; 25 μM activator, versus DMSO) was 100%, the “ATPase activity v0/ET” value ([8]; [ATP] 62.5 μM) was 0.302 nmol Pi / nmol VCP / s and 0.325 nmol Pi / nmol VCP / s and 0.308 nmol Pi / nmol VCP / s and the “ATPase activity v0/ET” value ([8]; [ATP] 125 μM) was 0.374 nmol Pi / nmol VCP / s and 0.402 nmol Pi / nmol VCP / s and 0.380 nmol Pi / nmol VCP / s. The “ATPase activity v0/ET” value ([8]; [ATP] 250 μM) was 0.403 nmol Pi / nmol VCP / s and 0.414 nmol Pi / nmol VCP / s and 0.420 nmol Pi / nmol VCP / s, the “ATPase activity v0/ET” value ([8]; [ATP] 500 μM) was 0.423 nmol Pi / nmol VCP / s and 0.468 nmol Pi / nmol VCP / s and 0.467 nmol Pi / nmol VCP / s and the “ATPase activity v0/ET” value ([8]; [ATP] 1000 μM) was 0.455 nmol Pi / nmol VCP / s and 0.493 nmol Pi / nmol VCP / s and 0.498 nmol Pi / nmol VCP / s.

From paper PMC11257039, “VCP activator reverses nuclear proteostasis defects and enhances TDP-43 aggregate clearance in multisystem proteinopathy models” (The Journal of Clinical Investigation, 2024)
